Reference: patent publication US20230203130A1, “A PEPTIDE COCKTAIL” (Hubro Therapeutics AS, priority 2020, published 2023)
Where two headings read alike, the source gives them in different places. Where no end group is shown, it is not given here.

What was measured:
[1] = system: T-cells from PMBCs of healthy donors; test: T-cell proliferation after stimulation of PMBCs with mixture fsp10, fsp11 and fsp13 (Example 8); assay type: cell-based, human; settings: FIG. 19; for T-cell response (proliferation, CPM): donor 1, one round of in vitro stimulation (14 days), 10 μM
Experimental: Using a similar procedure to that used in Examples 4 and 7 above, PMBCs from four healthy donors were stimulated in vitro with a peptide mixture containing equimolar amounts (10 uM) of fsp10 (SEQ ID NO: 28), fsp11 (SEQ ID NO: 29) and fsp13 (SEQ ID NO: 31).
After one round of stimulation (14 days), T-cells were harvested and tested for recognition of the peptide mixture, using single peptide concentrations of 10 μM. T-cell proliferation was measured as counts per minute (CPM) after uptake of ^3H-thymidine in a standard T cell proliferation assay.
The PMBCs from the four healthy donors underwent a second round of in vitro stimulation, and T-cells were again harvested and tested for proliferation against the peptide mixture and the individual peptides. […] While it has, in the past, been considered that a SI value of greater than 2 is the criterion for indicating a T-cell response in a T-cell proliferation assay, this is only the case in subjects who have been vaccinated prior to the T-cell proliferation assay. Where a healthy subject has not been vaccinated before the T-cell proliferation assay (as in the present T-cell proliferation assay), it is not expected that a SI value of 2 or greater will be achieved. Therefore, in non-vaccinated, healthy subjects, an increase in the SI value above 1 is indicative of a T-cell response.

[2] = system: colorectal cancer cell line HCT116; settings: Linnebacher et al.; HCT116 carries the corresponding frameshift mutation; cited from earlier work
T cells = settings: cited from earlier work
[3] = system: T-cells from PMBCs of healthy donors; test: T-cell proliferation after stimulation of PMBCs with mixture fsp17, fsp15 and fsp16 (Example 9); assay type: cell-based, human
Experimental: Using a similar procedure to that used in Examples 4 and 7 above, PMBCs from four healthy donors were stimulated in vitro with a peptide mixture containing equimolar amounts (10 uM) of fsp17 (SEQ ID NO: 126), fsp15 (SEQ ID NO: 127) and fsp16 (SEQ ID NO: 128), which are shown in Table 15, below. These peptides have the non-chiral amino acid glycine at their C-terminal, which can serve as a linker for conjugation of the peptides to other molecules. It is expected that this C-terminal glycine will not create any new T-cell epitopes which will change the specificity of the induced T-cells.
After one round (14 days) of in vitro stimulation, T-cells were harvested and tested for recognition of the peptide mixture or individual peptides, using a concentration of 10 μM of each peptide. T-cell proliferation was measured as counts per minute (CPM) after uptake of ^3H-thymidine in a standard T cell proliferation assay.
The PMBCs from the four healthy donors underwent a second round of in vitro stimulation, and T-cells were again harvested and tested for proliferation against the peptide mixture and the individual peptides.

[4] = assay type: physicochemical
Experimental: A batch of fsp5 (SEQ ID NO: 19) was prepared by solid phase peptide synthesis (SPPS) by using FMOC chemistry and Prelude synthesizer (Gyros Protein Technologies Inc., USA). The crude peptide was analysed by UPLC and MS. […] UPLC system: Column; Acquity UPLC BEH C18 […], detection; PDA 210-500 nm, solvent A); 0.1% TFA in water, solvent B; 0.1% TFA in MeCN, gradient: 20-70% B (2-10 minutes, linear).
When the purity of the small amount of purified fsp5 (SEQ ID NO: 19) was reassessed by UPLC after lyophilisation, the purity had dropped from around 90% to below 50% as shown in FIG. 4.

[5] = assay type: physicochemical; remark: listed apart in the source
Experimental: The peptide was difficult to dissolve and it was attempted to dissolve the crude fsp5 (SEQ ID NO: 19) (˜150 mg) in approximately 4 ml 50% MeCN in water under gentle heating.
Another batch of fsp5 (SEQ ID NO: 19) was prepared, dissolved in neat DMSO under gentle heating and purified by preparative HPLC. Again, only very small amounts of purified fsp5 (SEQ ID NO: 19) were obtained.

[6] = system: T cells (PBMC) from healthy donors; test: T-cell proliferation (3H-thymidine, SI) after in vitro stimulation of PBMC with cocktail fsp2+fsp4 (Example 4); assay type: cell-based, human; parameters: T cell proliferation (stimulation index, SI): immunogenicity: dose or concentration left out as unconfirmed
Experimental: Fresh buffy coats from four healthy donors were obtained from a blood bank.
Peripheral blood mononuclear cells (PBMC) isolated from fresh buffy coats from four healthy donors were counted and suspended in DC medium to 15*10^6 cells/ml, and subsequently diluted with DC-medium to 4*10^6 cells/ml (Table 6).
Four 24-well plates were used for each donor, with 4*10^6 cells per well (each well has a volume of 1 ml).
Peptide cocktail: Solution of peptides fsp2+fsp4, containing […] of each peptide. 40 μl peptide solution was added to each well.
The plates were incubated in a cell incubator for 14 days (37° C., 5% CO2). IL-2 and IL-7 were added on day 3. The cells were inspected daily.
Test peptides: fsp2+fsp4 (SEQ ID NOs: 21 and 23), fsp1 (SEQ ID NO: 20), fsp2 (SEQ ID NO: 21), fsp3 (SEQ ID NO: 22), fsp4 (SEQ ID NO: 23), fsp5 (SEQ ID NO: 19).
Negative controls: T cells, T cells+APC (without addition of test peptides)
Cells and reagents were added to plate wells (in triplicate) as described in Tables 8 and 9 below. The total volume added to each well was 0.20 ml. • T cells (PBMC): 50 000 cells/well (0.25*10^6 cells/ml) • APC: Irradiated (30 Gy, 8 minutes) autologous feeder cells: 50 000 cells/well • (fspx): 0.2 nmol peptide/well (each peptide), concentration: […] peptide. (fsp was dissolved in DMSO before dilution to correct concentration)
The plates were incubated in a cell incubator for 48 hours (37° C., 5% CO2).
After incubation for 48 hours, 20 μl 3H-tThymidine solution (5 Ci/ml) was added to each well and the plates were incubated for approximately 17 hours (37° C., 5% CO2).
After 17 hours the cells were harvested (Unifilters) and dried on the filters at 45° C. until completely dry. After covering the bottom of the Unifilters with adhesive covers (delivered with the Unifilters) 25 μl micro scintillation liquid was added to each well, the plate was covered with TopSeal and 3H-Thymidine uptake was measured as counts per minute (CPM) using a microplate scintillation counter.
The T cell proliferation results after the first round of in vitro stimulation with the cocktail of fsp2 and fsp4 peptides are presented as stimulation index (SI) in FIG. 10. SI=mean CPM (triplicates) of (T cells+APC+test peptide(s)) divided by mean CPM (triplicates) of (T cells+APC). SI>1 indicates an increase in T-cell proliferation and SI 2 is a clear sign of immunogenicity.
PBMCs harvested after the first in vitro stimulation were re-stimulated in vitro according to the protocol set out above, with 2×10^6 cells per well. T-cell proliferation was tested according to the protocol set out above.

[7] = second round of in vitro stimulation, FIG. 22

For “STCPTYVKGSPSCPLRDLQ (listed as Homo sapiens) [fsp13, peptide of −1a frameshifted SLC22A9]”, the “T-cell response (proliferation, CPM)” value [1] was “did not stimulate T-cells”.
With “SCPLRDLQTLWPILALISMSSIWGTMFS (listed as Homo sapiens) [fsp11, peptide of −1a frameshifted SLC22A9]” the “T-cell response (proliferation, CPM)” value [1] was “induced T-cell responses” and the “induction of T-cells relative to mixture of fsp11 and fsp13” value ([1]; donor 1, one round) was “greater induction of T-cells than the mixture of fsp11”.
In the case of “RLSSCVPVA (listed as Homo sapiens) [p573, prior art peptide of mutTGFβR2]”, the “lysis of colorectal cancer cell line HCT116” value [2] is listed as “able to lyse the colorectal cancer cell line HCT116”, the immunogenicity (T cells; EP1078000 FIG. 14, four rounds of stimulation of the T-cells) is listed as “not immunogenic” and the immunogenicity (T cells; Linnebacher et al., FIG. 1) is listed as “immunogenic”. The “activating specific CTLs” value (T cells; Linnebacher et al., HLA-A2.1 restricted, in vitro) was “capable of activating specific CTLs”, the immunogenicity (T cells; Saeterdal et al., 2001, Cancer Immunol Immunother) was “immunogenic” and the “generation of CTL line and CTL clones” value (T cells; Saeterdal et al., Cancer Immunol Immunother 2001) was “able to generate a CTL line and several CTL clones”.
In the case of “KKKGRRNRIPAVLRTEGEPLHTPSVGMRETG (listed as Homo sapiens) [fsp15, peptide of −1a frameshifted ASTE1]”, the “T-cell induction (proliferation)” value ([3]; one round (14 days) of in vitro stimulation, 10 μM, FIG. 21) is reported as “T-cells are induced” and the “T-cell induction (proliferation)” value [3, 7] is reported as “T-cells were induced”.
With “KGIMKEKKSLVRLSSCVPVALMSAMTG (not fully specified) [fsp17, modified peptide of −1a frameshifted TGFβR2]” the “T-cell induction (proliferation)” value [3, 7] was “T-cells were induced”.
With “KCIMKEKKSLVRLSSCVPVALMSAMTTSSSQKN (listed as Homo sapiens) [fsp5, optimised consensus peptide of TGFβR2]” the “purity by UPLC after lyophilisation (stability)” value [4] was “below 50%”, the “effect of adding water to DMSO solution” value [5] was “precipitation of the peptide” and the solubility [5] was “no clear solution could be obtained”. For the same sequence, the relative immunogenicity ([6]; FIGS. 10 and 11, compared with fsp3 and fsp4) was “more immunogenic than peptides which do not comprise amino acids from the wild-type sequence of TGFβR2” and the “T cell proliferation (stimulation index, SI): immunogenicity” value ([6]; first and second round of in vitro stimulation with cocktail of fsp2 and fsp4, four healthy donors, FIGS. 10-12) was “stimulated T-cells induced from PMBCs”.
For “KKTLRNHLFLIRWIILTFLQKILK (listed as Homo sapiens) [fsp10, peptide of −1a frameshifted KIAA2018]”, the “T-cell response (proliferation, CPM)” value [1] was “did not stimulate T-cells”.
